Results on one compound are retold here after EPA's ToxValDB 9.5 (doi:10.2903/j.efsa.2010.1645).

≈ marks a conversion by molar mass, not a printed value.

The test system of one series is Apis mellifera. The note with it: acute, duration: 48 hours, mortality.
The test system of another series is Bibionidae. To be noted: chronic/long-term; duration: 28 days; development.
Another series concerns Daphnia magna. The note with it: chronic/long-term; duration: 21 days; reproduction.
The next series concerns Folsomia candida. To be noted: chronic/long-term; duration: 28 days; reproduction.
Another series has as its system Glycine sp. To be noted: chronic/long-term; seedling emergence.
Another series relates to Oncorhynchus mykiss. The note with it: acute; duration: 96 hours; mortality.
A further series deals with Pimephales promelas. The note with it: chronic/long-term; duration: 35 days; growth.
Another series deals with Typhlodromus pyri. The series can be described thus: LR50; higher = less toxic. The note with it: acute; duration: 7 days; mortality.

What is called NOAEL is the highest tested level that showed no adverse finding. On to `CC(C)[C@@H](Nc1ccc(C(F)(F)F)cc1Cl)C(=O)OC(C#N)c1cccc(Oc2ccccc2)c1` (stereo not given in full) [tau-Fluvalinate], for which the LD50 turned out to be 12 µg/piece in the series with Apis mellifera (dermal) and 12.6 µg/piece in the series with Apis mellifera (oral, unspecified). In addition, the NOEC is 0.00024 mg/L in the series with Bibionidae; 2.1e-05 mg/L in the series with Daphnia magna; 9.6 mg/kg with Folsomia candida; under 6.25 g/ha with Glycine sp.; 6.4e-05 mg/L in the series on Pimephales promelas; over 2.88 mg/kg in the series on Tagia sp. (chronic/long-term, duration: 56 days, reproduction). For the same compound, the LC50 was 7.94 ng/mL (≈ 0.0158 µM) with Oncorhynchus mykiss and over 1000 mg/kg with Tagia sp. (acute, duration: 14 days, mortality). The NOAEL in the series with Rattus norvegicus (chronic, duration: 2 years, body weight) was 0.5 mg/kg-day; in the series on Rattus norvegicus (developmental, development), 5 mg/kg-day; in the series on Rattus norvegicus (short-term, duration: 28 days, clinical signs), 6 mg/kg-day; with Rattus norvegicus (subchronic, duration: 90 days, oral, diet, body weight), 1 mg/kg-day. The LR50 in the series with Typhlodromus pyri stood at 0.049 g/ha.
